{
  "source": "the Kinase Knowledgebase extract (Sharma et al. 2016)",
  "data": [
    {"molecular_target": "PIK3CG (UniProt P48736)", "sequence (P48736 whole entry, looked up)": "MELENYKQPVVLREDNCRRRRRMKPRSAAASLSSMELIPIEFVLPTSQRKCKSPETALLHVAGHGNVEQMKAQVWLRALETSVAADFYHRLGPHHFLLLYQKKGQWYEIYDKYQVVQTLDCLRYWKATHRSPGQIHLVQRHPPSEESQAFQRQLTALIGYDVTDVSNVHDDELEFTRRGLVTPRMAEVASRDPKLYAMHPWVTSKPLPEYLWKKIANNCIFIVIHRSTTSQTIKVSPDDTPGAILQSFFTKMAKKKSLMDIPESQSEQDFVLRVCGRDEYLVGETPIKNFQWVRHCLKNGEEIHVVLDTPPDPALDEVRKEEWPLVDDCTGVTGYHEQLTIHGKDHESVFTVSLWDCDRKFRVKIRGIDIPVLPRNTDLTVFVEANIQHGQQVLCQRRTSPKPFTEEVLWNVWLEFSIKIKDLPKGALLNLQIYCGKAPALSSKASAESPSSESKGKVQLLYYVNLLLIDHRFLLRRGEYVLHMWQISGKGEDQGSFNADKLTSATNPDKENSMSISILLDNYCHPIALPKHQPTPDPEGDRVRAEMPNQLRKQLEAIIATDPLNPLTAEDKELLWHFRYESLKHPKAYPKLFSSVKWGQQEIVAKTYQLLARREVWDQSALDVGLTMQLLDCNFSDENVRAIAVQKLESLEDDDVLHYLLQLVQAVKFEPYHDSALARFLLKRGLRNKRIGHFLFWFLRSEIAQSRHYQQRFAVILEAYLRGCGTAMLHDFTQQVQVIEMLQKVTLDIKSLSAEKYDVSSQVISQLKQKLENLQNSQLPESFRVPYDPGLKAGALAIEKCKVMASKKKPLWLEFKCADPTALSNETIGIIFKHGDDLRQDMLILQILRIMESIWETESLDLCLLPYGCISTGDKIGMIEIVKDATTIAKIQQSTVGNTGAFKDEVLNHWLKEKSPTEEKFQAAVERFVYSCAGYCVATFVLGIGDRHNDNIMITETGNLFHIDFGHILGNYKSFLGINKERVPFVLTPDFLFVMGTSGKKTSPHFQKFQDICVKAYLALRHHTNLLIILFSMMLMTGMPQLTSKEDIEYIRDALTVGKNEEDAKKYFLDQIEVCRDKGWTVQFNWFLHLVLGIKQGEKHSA", "test": "Inhibition of PIK3CG Kinase Activity", "units": {"IC50": "nM"}, "values": [
      {"smiles": "CCN1C(=O)COc2ccc(C=C3SC(=S)NC3=O)cc21", "IC50": 42},
      {"smiles": "CC(C)(C)OC(=O)N1CCC(C(=O)CN2C(=O)COc3ccc(C=C4SC(=S)NC4=O)cc32)CC1", "IC50": 3180},
      {"smiles": "O=C1NC(=S)SC1=Cc1ccc2c(c1)N(CCc1ccc(C(F)(F)F)cc1C(F)(F)F)C(=O)CO2", "IC50": 14},
      {"smiles": "CC(C)(C)c1cc(C(C)(C)C)nc(CN2C(=O)COc3ccc(C=C4SC(=S)NC4=O)cc32)n1", "IC50": 2070},
      {"smiles": "CN1C(=O)COC2C=CC(C=C3OC(=S)NC3=O)=CC21", "note": "(stereo not given)", "IC50": 16},
      {"smiles": "CCOC(=O)N1CCC(Cc2ccc(CN3C(=O)COc4ccc(C=C5SC(=S)NC5=O)cc43)cc2)CC1", "IC50": 52},
      {"smiles": "CC1CC(C)CN(CCCN2C(=O)COc3c(F)cc(C=C4SC(=S)NC4=O)cc32)C1", "note": "(stereo not given)", "IC50": 18.5},
      {"smiles": "O=C1NC(=S)SC1=Cc1cc(F)c2c(c1)N(Cc1ccc(F)c(Cl)c1)C(=O)CO2", "IC50": 2},
      {"smiles": "O=C1NC(=S)SC1=Cc1ccc2c(c1)N(CC1CCCCC1)C(=O)CO2", "IC50": 2},
      {"smiles": "CC(C)(C)c1cc(C(C)(C)C)nc(CN2C(=O)COc3c(F)cc(C=C4SC(=S)NC4=O)cc32)n1", "IC50": 1240},
      {"smiles": "O=C1NC(=S)SC1=Cc1cc(F)c2c(c1)N(CCCN1CCOCC1)C(=O)CO2", "IC50": 55},
      {"smiles": "CCOC(=O)N1CCC(Cc2ccc(CN3C(=O)COc4ccc(C=C5SC(=O)NC5=O)cc43)cc2)CC1", "IC50": 32},
      {"smiles": "CC(C)(C)c1cc(CN2C(=O)COc3c(F)cc(C=C4SC(=S)NC4=O)cc32)cc(C(C)(C)O)c1", "IC50": 5},
      {"smiles": "CC(C)(C)c1cc(O)cc(CN2C(=O)COc3ccc(C=C4SC(=S)NC4=O)cc32)c1", "IC50": 22},
      {"smiles": "COc1ccc(CCCN2C(=O)COc3ccc(C=C4SC(=O)NC4=O)cc32)cc1", "IC50": 18}
    ]}
  ]
}
